In paper PMC9551036, “A selective and orally bioavailable VHL-recruiting PROTAC achieves SMARCA2 degradation in vivo” (Nature Communications, 2022):
“And” between values parts separate entries of the source, which are not always exact repeats. Identical values can stand only once. Like-named read-outs stand apart in the source and are kept apart here.

Tests used:
[1] = biological target: T1, PBRM1 BD (Homo sapiens, UniProt Q86U86); experiment: TR-FRET binary and ternary (PROTAC + VCB) affinity, PBRM1 bromodomain; format: binding; conditions: individual replicates
T1 construct: GST (TEV site) (N); made in house; host or cells: Escherichia coli BL21(DE3)

[2] = biological target: T2, (Homo sapiens, UniProt P51532); experiment: TR-FRET ternary complex affinity and cooperativity, SMARCA4; format: binding
T2 construct: P51532, residues 1448–1569 with additional N-terminal SM residues; GST (TEV site) (N); His6 (TEV site) (N, cleaved yes); made in house; host or cells: SMARCA4^BD: Escherichia coli BL21(DE3)
T2 sequence (P51532 1448-1569): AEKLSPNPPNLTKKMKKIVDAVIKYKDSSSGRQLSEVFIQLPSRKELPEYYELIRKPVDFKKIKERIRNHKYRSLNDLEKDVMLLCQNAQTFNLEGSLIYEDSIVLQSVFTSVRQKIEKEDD

[3] = tested on: NCI-H1568 cells; experiment: Cell viability assay (CellTiter Glo) in NCI-H1568; format: cell-based, human; conditions: for EC50: read-out: EC50 cell proliferation (CellTiter Glo); for IC50: NCI-H1568, (18h), CellTiter Glo, individual replicates, read-out: NCI-H1568 (18h) CTG
Protocol: 500–2000 cells were seeded in white, clear bottom 96-well plates (Corning or Perkin Elmer) in 180–200 µl medium per well. The next day, compounds were added using a digital dispenser and a T0 sample was measured for reference. […], and viability (luminescence) was measured using CellTiter Glo or CellTiter Glo 2.0 (Promega) according to manufacturer’s instructions after equilibrating cells and reagents at room temperature and 10–20 min incubation time while shaking.

[4] = biological target: SMARCA4 (Homo sapiens, UniProt P51532); experiment: SMARCA4 capillary electrophoresis protein assay in RKO cells; format: cell-based; parameters: endogenous in cells; host or cells: RKO, HCT116, LU99, HCC-364, HCT-15, HCC4006, SK-N-AS; conditions: mean ± SD
SMARCA4, sequence (P51532 whole entry): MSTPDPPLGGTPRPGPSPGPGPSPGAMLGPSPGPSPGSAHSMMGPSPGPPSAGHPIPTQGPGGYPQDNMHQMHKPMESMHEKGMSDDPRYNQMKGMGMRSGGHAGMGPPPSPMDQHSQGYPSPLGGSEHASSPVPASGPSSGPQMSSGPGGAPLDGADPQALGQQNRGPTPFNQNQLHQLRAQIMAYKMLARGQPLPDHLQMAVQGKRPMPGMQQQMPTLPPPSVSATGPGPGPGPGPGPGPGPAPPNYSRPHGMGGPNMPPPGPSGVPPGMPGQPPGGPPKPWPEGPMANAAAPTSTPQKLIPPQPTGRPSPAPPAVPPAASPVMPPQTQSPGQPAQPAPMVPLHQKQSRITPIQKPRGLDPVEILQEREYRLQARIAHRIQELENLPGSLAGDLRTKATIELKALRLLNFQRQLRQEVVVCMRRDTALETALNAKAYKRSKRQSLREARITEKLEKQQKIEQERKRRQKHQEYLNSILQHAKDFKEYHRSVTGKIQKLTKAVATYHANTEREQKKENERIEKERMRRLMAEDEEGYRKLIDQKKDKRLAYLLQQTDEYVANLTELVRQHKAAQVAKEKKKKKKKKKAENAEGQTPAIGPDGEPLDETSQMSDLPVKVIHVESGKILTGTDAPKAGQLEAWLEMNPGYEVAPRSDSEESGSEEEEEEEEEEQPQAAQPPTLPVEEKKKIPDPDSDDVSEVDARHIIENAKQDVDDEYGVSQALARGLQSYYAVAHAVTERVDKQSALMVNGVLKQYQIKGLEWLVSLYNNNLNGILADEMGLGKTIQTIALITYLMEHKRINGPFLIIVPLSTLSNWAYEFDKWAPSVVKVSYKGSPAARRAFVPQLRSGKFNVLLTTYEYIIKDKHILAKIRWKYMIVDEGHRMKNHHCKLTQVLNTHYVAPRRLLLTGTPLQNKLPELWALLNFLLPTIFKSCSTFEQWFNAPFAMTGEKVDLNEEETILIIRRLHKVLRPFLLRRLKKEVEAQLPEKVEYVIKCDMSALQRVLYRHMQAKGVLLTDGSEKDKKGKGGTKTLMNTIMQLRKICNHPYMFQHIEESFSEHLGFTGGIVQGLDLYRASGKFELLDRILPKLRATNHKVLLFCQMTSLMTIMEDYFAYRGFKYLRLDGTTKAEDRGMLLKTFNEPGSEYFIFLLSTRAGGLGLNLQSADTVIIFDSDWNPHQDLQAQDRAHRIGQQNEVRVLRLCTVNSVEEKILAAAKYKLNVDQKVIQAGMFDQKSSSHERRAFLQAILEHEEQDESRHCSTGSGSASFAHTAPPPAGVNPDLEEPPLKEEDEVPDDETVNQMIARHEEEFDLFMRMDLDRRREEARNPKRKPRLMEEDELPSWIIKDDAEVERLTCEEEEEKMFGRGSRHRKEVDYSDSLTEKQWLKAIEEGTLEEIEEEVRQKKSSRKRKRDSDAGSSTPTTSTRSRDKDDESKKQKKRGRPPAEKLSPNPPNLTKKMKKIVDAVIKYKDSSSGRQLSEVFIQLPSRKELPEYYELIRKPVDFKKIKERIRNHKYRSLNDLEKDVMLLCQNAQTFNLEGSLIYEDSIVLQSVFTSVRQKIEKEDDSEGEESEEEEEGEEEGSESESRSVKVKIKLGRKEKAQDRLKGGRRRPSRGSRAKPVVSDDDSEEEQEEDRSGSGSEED
Protocol: 130,000–200,000 cells were seeded in 24-well plates and incubated until settled down or overnight. Compounds were dissolved in DMSO and added to cells in indicated concentrations using a digital dispenser following an optional media change. Cells were incubated for 4 or 18 h as indicated. For SMARCA2/4 half-life determination, 150,000 or 200,000 cells were seeded in 24-well plates. The next day, 50 µg/ml cycloheximide (Sigma) was added and cells were incubated for 1–24 h. For SMARCA2/4 re-synthesis measurements, 200,000 cells were seeded in 24-well plates. The next day, 100 nM compound 6 was added for 4 h to degrade SMARCA2/4, and a sample was taken as baseline for normalisation. To allow re-synthesis, a VHL binder (compound 32, 25 or 50 µM) was then added for 3 or 24 h. Medium was removed, cells were washed with PBS and lysed with 80 µl Lysis Buffer (MSD Tris Lysis Buffer (#R60TX-2) + Halt Inhibitor Cocktail (100x) + Benzonase 0.5 µL/ml). Samples were frozen at −80 °C and thawed at room temperature before use. Samples were transferred to a V-bottom plate and insoluble debris was pelleted by centrifugation for 5 min at maximum speed. The supernatant was transferred to a fresh plate. Master Mix and Ladder were prepared according to manufacturer’s instructions for 12–230 kDa Wes Separation Module, 8 × 25 capillary cartridges, Protein Simple #SM-W004 with Anti-Rabbit Detection Module for Wes, Peggy Sue or Sally Sue, Protein Simple #DM-001. 4.8 µl lysate were mixed with 1.2 µl Master Mix to achieve a protein concentration of ~0.5 µg/µl. Antibodies were diluted in Antibody Diluent II (SMARCA2 Sigma #HPA029981 RRID:AB_10602406 1:25–100, SMARCA4 Cell Signalling #49360 clone D1Q7F RRID:AB_2728743 1:15–120 or Abcam #ab110641 clone EPNCIR111A RRID:AB_10861578 1:60, GAPDH Abcam #ab9485 RRID:AB_307275 1:250). Wes plates were prepared and run according to manufacturer’s instructions. Proteins were quantified with accompanying Compass Software. SMARCA2/4 protein levels were normalised to GAPDH. […] Where applicable, curves were fitted using a 4-parametric logistic model.

[5] = biological target: VCB: PROTAC: SMARCA2^BD ternary complex (Homo sapiens, UniProt P40337+P51531); experiment: TR-FRET ternary complex affinity and cooperativity, SMARCA2; format: binding; parameters: P51531-2, residues 1373-1493 with additional N-terminal SM residues; GST (TEV site) (N); His6 (TEV site) (N, cleaved yes); made in house; host or cells: SMARCA2^BD: Escherichia coli BL21(DE3)
VCB: PROTAC: SMARCA2^BD ternary complex (Homo sapiens, UniProt P40337+P51531), sequence (P51531 with tags, fused parts or gaps isoform P51531-2): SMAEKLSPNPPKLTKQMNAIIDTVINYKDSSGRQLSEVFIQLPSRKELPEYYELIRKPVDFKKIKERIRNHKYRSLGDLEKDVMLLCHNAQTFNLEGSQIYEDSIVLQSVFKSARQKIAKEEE
VCB: PROTAC: SMARCA2^BD ternary complex (Homo sapiens, UniProt P40337+P51531), sequence (P40337 54-213): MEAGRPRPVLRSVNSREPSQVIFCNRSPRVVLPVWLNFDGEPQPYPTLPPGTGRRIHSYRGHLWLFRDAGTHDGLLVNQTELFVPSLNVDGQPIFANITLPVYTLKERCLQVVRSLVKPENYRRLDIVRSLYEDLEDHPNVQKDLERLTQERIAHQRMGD
VCB: PROTAC: SMARCA2^BD ternary complex (Homo sapiens, UniProt P40337+P51531), sequence (Q15369 17-112 partner): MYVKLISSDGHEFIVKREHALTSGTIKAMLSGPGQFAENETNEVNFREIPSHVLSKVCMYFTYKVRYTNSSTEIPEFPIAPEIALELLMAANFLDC
VCB: PROTAC: SMARCA2^BD ternary complex (Homo sapiens, UniProt P40337+P51531), sequence (Q15370 1-104 partner): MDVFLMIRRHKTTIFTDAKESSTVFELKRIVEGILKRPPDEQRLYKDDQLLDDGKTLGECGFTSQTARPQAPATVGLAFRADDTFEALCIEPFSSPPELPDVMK

[6] = biological target: T3, VCB: PROTAC: SMARCA2^BD ternary complex (Homo sapiens, UniProt P51531); experiment: as above; format: binding
T3 construct: P51531-2, residues 1373-1493 with additional N-terminal SM residues; GST (TEV site) (N); His6 (TEV site) (N, cleaved yes); made in house; host or cells: SMARCA2^BD: Escherichia coli BL21(DE3)
T3 sequence (P51531 with tags, fused parts or gaps isoform P51531-2): as the sequence (P51531 with tags, fused parts or gaps isoform P51531-2) above

[7] = PROTAC + VCB, read-out: Ternary PBRM1 BD EC50 (PROTAC + VCB)
[8] = binary, PROTAC alone, read-out: PBRM1 EC50
[9] = binary, PROTAC alone, individual replicates, read-out: SMARCA4 BD EC50
[10] = PROTAC + VCB, individual replicates, read-out: Ternary SMARCA2 BD EC50 (PROTAC + VCB)
[11] = binary, PROTAC alone, individual replicates, read-out: SMARCA2 BD EC50

SMILES	EC50 [1, 7]	EC50 [1, 8]	EC50 [2, 9]	EC50 ([3]; NCI-H1568 ([…]), mean ± SD)	IC50 [3]	DC50 ([4]; RKO (4 h))	DC50 ([4]; RKO (18 h))	EC50 [5, 10]	EC50 [6, 11]	EC50 ([2]; TR-FRET competition for SMARCA4BD, without VCB, mean ± SD, read-out: TR-FRET SMARCA4BD EC50)	EC50 ([3]; Homo sapiens, NCI-H1568, […])	EC50 ([5]; TR-FRET competition for SMARCA2BD, + VCB, mean ± SD, read-out: TR-FRET Ternary SMARCA2BD EC50 (PROTAC + VCB))	EC50 ([6]; TR-FRET competition for SMARCA2BD, without VCB, mean ± SD, read-out: TR-FRET SMARCA2BD EC50)
CN1CCN(c2nc(=O)c3c(Cl)cccc3o2)CC1 [compound 13]	> 10000 nM	> 10000 nM	> 10000 nM	> 10000 nM	> 10000 nM	> 25000 nM	> 25000 nM	> 10000 nM	> 10000 nM	–	–	–	–
O=c1nc2n(C3CCCC3)c3ccccc3n2c2cccc(Br)c12 [compound 1]	129 nM and 124 nM and 140 nM	124 nM and 116 nM and 167 nM	800 nM and 849 nM and 927 nM	–	–	> 25000 nM	> 25000 nM	381 nM and 365 nM and 425 nM	413 nM and 429 nM and 435 nM	857 ± 64 nM	1100 nM	389 ± 31 nM	425 ± 11 nM
CN1CCN(c2nc(=O)c3ccccc3o2)CC1 [compound 14]	> 10000 nM	> 10000 nM	> 10000 nM	> 10000 nM	> 10000 nM	> 25000 nM	> 25000 nM	> 10000 nM	> 10000 nM	–	–	–	–
